Measured values from ChEMBL document CHEMBL2074218, “Effect of P-glycoprotein modulator, cyclosporin A, on the gastrointestinal excretion of irinotecan and its metabolite SN-38 in rats” (Pharm Res, 2003).

biological target: ATP-dependent translocase ABCB1 (Mus musculus, UniProt P21447); assay: TP_TRANSPORTER: transepithelial transport (basal to apical) in Mdr1a-expressing LLC-PK1 cells; assay type: functional, cell-based; conditions: pig
Sequence (P21447 whole entry): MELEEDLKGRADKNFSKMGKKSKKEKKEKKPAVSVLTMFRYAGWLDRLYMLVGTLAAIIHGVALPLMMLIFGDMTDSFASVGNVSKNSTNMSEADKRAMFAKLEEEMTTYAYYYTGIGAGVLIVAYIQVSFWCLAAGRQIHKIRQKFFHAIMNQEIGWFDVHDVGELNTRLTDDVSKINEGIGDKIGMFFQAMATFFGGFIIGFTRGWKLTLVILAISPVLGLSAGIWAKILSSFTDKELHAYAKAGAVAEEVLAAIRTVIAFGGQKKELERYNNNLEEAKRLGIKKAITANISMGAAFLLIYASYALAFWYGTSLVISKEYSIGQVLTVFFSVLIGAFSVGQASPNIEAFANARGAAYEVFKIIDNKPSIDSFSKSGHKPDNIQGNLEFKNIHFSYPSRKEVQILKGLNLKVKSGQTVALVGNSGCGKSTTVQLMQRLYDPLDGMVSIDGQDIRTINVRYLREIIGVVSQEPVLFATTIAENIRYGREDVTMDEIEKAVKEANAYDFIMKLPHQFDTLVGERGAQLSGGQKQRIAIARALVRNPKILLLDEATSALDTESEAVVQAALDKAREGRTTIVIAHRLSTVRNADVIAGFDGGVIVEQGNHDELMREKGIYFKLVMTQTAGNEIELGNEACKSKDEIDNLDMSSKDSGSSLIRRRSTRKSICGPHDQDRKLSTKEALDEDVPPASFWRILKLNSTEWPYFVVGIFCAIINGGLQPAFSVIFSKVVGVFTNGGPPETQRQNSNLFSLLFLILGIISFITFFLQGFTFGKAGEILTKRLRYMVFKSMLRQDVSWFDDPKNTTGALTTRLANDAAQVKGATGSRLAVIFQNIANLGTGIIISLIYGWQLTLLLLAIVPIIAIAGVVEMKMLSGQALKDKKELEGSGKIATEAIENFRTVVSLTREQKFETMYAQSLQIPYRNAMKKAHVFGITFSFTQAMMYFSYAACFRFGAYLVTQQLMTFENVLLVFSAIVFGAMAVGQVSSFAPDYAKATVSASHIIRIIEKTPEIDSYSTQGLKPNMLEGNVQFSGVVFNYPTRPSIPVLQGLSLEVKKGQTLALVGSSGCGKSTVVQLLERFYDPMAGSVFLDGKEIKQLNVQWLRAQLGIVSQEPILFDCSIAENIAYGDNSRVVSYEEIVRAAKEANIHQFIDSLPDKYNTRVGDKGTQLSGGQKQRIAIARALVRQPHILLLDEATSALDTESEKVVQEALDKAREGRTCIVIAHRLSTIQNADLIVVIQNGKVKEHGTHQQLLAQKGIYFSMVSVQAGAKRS

Row | Structure (SMILES) | Activity
1 | CCc1c2c(nc3ccc(OC[C@@H]4O[C@H](C(=O)O)[C@@H](O)[C@H](O)[C@H]4O)cc13)-c1cc3c(c(=O)n1C2)COC(=O)[C@]3(O)CC | substrate [+]
2 | CCc1c2c(nc3ccc(O)cc13)-c1cc([C@@](O)(CC)C(=O)O)c(CO)c(=O)n1C2 | substrate [+]
3 | CCc1c2c(nc3ccc(OC(=O)N4CCC(N5CCCCC5)CC4)cc13)-c1cc([C@@](O)(CC)C(=O)O)c(CO)c(=O)n1C2 | substrate [+]
4 | CCc1c2c(nc3ccc(OC(=O)N4CCC(N5CCCCC5)CC4)cc13)-c1cc3c(c(=O)n1C2)COC(=O)[C@]3(O)CC [IRINOTECAN] | substrate [+]
